In one test the test system is rice "Bakanae" disease. As to the kind of experiment: whole plant or invertebrate. The test is classed as in vivo. Particulars: Oryza sativa, 504 h, read-out: prevention value.
The subject of test [1] is rice blast. The test is classed as in vivo, Pyricularia oryzae.
Test [2] has as its system rice blast. Description: whole plant or invertebrate. The test is classed as in vivo. To be noted: Pyricularia oryzae, 504 h, read-out: prevention value.
[3] abbreviates: rice (Sachikaze), nursery box soil treated at sowing time or transplanting time, 400 g a.i./10 a, observed 7 days after inoculation, untreated plants = 3.

Read-outs that look alike come from different tables or passages of the source.

As for `CC1(C)N=C(c2cnc3ccccc3c2)c2ccccc2C1(F)F` [Compound No. 1-929, 3-(4,4-difluoro-3,3-dimethyl-3,4-dihydroisoquinolin-1-yl)quinoline], the pest or weed control at 0.02 % a.i. with rice "Bakanae" disease and in the test on rice blast [2] was no less than 80% each time. This molecule also had a disease severity with rice blast [1] (setting [3]) of 0. Molecule `CC1(C)N=C(c2cnc3c(F)cccc3c2)c2cccc(F)c2C1(C)C` [Compound No. 1-918, 8-fluoro-3-(5-fluoro-3,3,4,4-tetramethyl-3,4-dihydroisoquinolin-1-yl)quinoline] displayed a disease severity with rice blast [1] (setting [3]) of 0. For `CC1(C)Cc2c(Cl)cccc2C(c2cnc3ccccc3c2)=N1` [Compound No. 1-44, 3-(5-chloro-3,3-dimethyl-3,4-dihydroisoquinolin-1-yl)quinoline], the disease severity in the test with rice blast [1] (setting [3]) is 0. Turning to `CC1(C)[N+]([O-])=C(c2cnc3ccccc3c2)c2ccccc2C1(F)F` [Compound No. 3-134, 3-(4,4-difluoro-3,3-dimethyl-2-oxido-3,4-dihydroisoquinolin-1-yl)quinoline], the pest or weed control at 0.02 % a.i. in the test on rice "Bakanae" disease and in the test on rice blast [2] was no less than 80% throughout. Further, in the test with rice blast [1] (setting [3]), the disease severity is 0. As for `CC1(C)Cc2c(ccc(F)c2F)C(c2cnc3ccccc3c2)=N1` [Compound No. 1-117, 3-(5,6-difluoro-3,3-dimethyl-3,4-dihydroisoquinolin-1-yl)quinoline], the disease severity with rice blast [1] (setting [3]) is given as 0.

On to `Cc1cccc2cc(C3=NC(C)(C)C(C)(C)c4c(F)cccc43)cnc12` [Compound No. 1-919, 3-(5-fluoro-3,3,4,4-tetramethyl-3,4-dihydroisoquinolin-1-yl)-8-methylquinoline], for which the disease severity with rice blast [1] (setting [3]) was 0. `CCCC1(C)Cc2c(F)cccc2C(c2cnc3ccccc3c2)=N1` (stereo not shown) [Compound No. 1-185, 3-(5-fluoro-3-methyl-3-propyl-3,4-dihydroisoquinolin-1-yl)quinoline] returned a disease severity with rice blast [1] (setting [3]) of 0.

As for `CC1(C(F)(F)F)Cc2ccccc2C(c2cnc3ccccc3c2)=N1` (stereo not shown) [Compound No. 1-387, 3-(3-methyl-3-trifluoromethyl-3,4-dihydroisoquinolin-1-yl)quinoline], the disease severity in the test with rice blast [1] (setting [3]) is listed as 0. In the case of `CC1(C)N2OC2(c2cnc3ccccc3c2)c2cccc(F)c2C1(F)F` (stereo not shown) [Compound No. 2-135, 4,4,5-trifluoro-3,3-dimethyl-8b-quinolin-3-yl-4,8b-dihydro-3H-oxazireno[3,2-a]isoquinoline], in the test on rice blast [2], the pest or weed control at 0.02 % a.i. was no less than 80%. Consider `CC1(C)N=C(c2cnc3ccccc3c2)c2cccc(F)c2C1(C)C` [Compound No. 1-866, 3-(5-fluoro-3,3,4,4-tetramethyl-3,4-dihydroisoquinolin-1-yl)quinoline], for which the pest or weed control at 0.02 % a.i. in the test with rice "Bakanae" disease and with rice blast [2] was no less than 80% throughout. The same molecule returned a disease severity in the test on rice blast [1] (setting [3]) of 0.

For `CC1(C)[N+]([O-])=C(c2cnc3ccccc3c2)c2cccc(F)c2C1(F)F` [Compound No. 3-135, 3-(4,4,5-trifluoro-3,3-dimethyl-2-oxido-3,4-dihydroisoquinolin-1-yl)quinoline], the pest or weed control at 0.02 % a.i. with rice "Bakanae" disease and in the test on rice blast [2] was no less than 80% each time. Moreover, the disease severity in the test on rice blast [1] (setting [3]) came out at 0.

`CC1(C)c2cc(F)ccc2C(c2cnc3ccccc3c2)=[N+]([O-])C1(C)C` [Compound No. 3-109, 3-(6-fluoro-3,3,4,4-tetramethyl-2-oxido-3,4-dihydroisoquinolin-1-yl)quinoline]: the disease severity in the test on rice blast [1] (setting [3]) came out at 0.

In the test with rice blast [1] (in vivo), `CC1(C)c2ccccc2C2(c3cnc4ccccc4c3)ON2C1(C)C` (stereo not shown) [Compound No. 2-91, 3,3,4,4-tetramethyl-8b-quinolin-3-yl-4,8b-dihydro-3H-oxazireno[3,2-a]isoquino line] had a disease severity of 0.

In the case of `CC1(c2ccc(F)cc2)Cc2ccccc2C(c2cnc3ccccc3c2)=N1` (stereo not shown) [Compound No. 1-502, 3-[3-methyl-3-(4-fluorophenyl)-3,4-dihydroisoquinolin-1-yl]quinoline], the disease severity in the test on rice blast [1] (setting [3]) came out at 0. With `CC1(C)c2c(F)cccc2C2(c3cnc4ccccc4c3)ON2C1(C)C` (stereo not shown) [Compound No. 2-100, 5-fluoro-3,3,4,4-tetramethyl-8b-quinolin-3-yl-4,8b-dihydro-3H-oxazireno[3,2-a]isoquinoline], the pest or weed control at 0.02 % a.i. with rice "Bakanae" disease and with rice blast [2] was no less than 80% throughout. For the molecule `CC1(C)Cc2c(F)cccc2C(c2cnc3ccccc3c2)=N1` [Compound No. 1-32, 3-(5-fluoro-3,3-dimethyl-3,4-dihydroisoquinolin-1-yl)quinoline], the pest or weed control at 0.02 % a.i. with rice "Bakanae" disease and with rice blast [2] was no less than 80% throughout. Moreover, the disease severity in the test on rice blast [1] (setting [3]) is recorded as 0. With `CC1(C)N=C(c2cnc3ccccc3c2)c2cccc(F)c2C1(F)F` [Compound No. 1-930, 3-(4,4,5-trifluoro-3,3-dimethyl-3,4-dihydroisoquinolin-1-yl)quinoline], the pest or weed control at 0.02 % a.i. in the test on rice "Bakanae" disease and in the test with rice blast [2] was no less than 80% throughout. The disease severity with rice blast [1] (setting [3]) is 0. On to `CC1(C)N2OC2(c2cnc3ccccc3c2)c2ccccc2C1(F)F` (stereo not shown) [Compound No. 2-134, 4,4-difluoro-3,3-dimethyl-8b-quinolin-3-yl-4,8b-dihydro-3H-oxazireno[3,2-a]isoquinoline], for which the pest or weed control at 0.02 % a.i. in the test with rice blast [2] was no less than 80%.

As to `CC1(C)N=C(c2cnc3ccccc3c2)c2ccccc2C1(C)C` [Compound No. 1-865, 3-(3,3,4,4-tetramethyl-3,4-dihydroisoquinolin-1-yl)quinoline], in the test with rice "Bakanae" disease, the pest or weed control at 0.02 % a.i. was no less than 80%. In the test on rice blast [1] (setting [3]), `CC1(C)Cc2c(Br)cccc2C(c2cnc3ccccc3c2)=N1` [Compound No. 1-56, 3-(5-bromo-3,3-dimethyl-3,4-dihydroisoquinolin-1-yl)quinoline] gave a disease severity of 0. As for `CC1(C)c2c(F)cccc2C(c2cnc3ccccc3c2)=[N+]([O-])C1(C)C` [Compound No. 3-100, 3-(5-fluoro-3,3,4,4-tetramethyl-2-oxido-3,4-dihydroisoquinolin-1-yl)quinoline], the pest or weed control at 0.02 % a.i. in the test on rice "Bakanae" disease and with rice blast [2] was no less than 80% throughout. Moreover, the disease severity in the test with rice blast [1] (setting [3]) was 0. With `CC1(CC(F)(F)F)Cc2ccccc2C(c2cnc3ccccc3c2)=N1` (stereo not shown) [Compound No. 1-425, 3-[3-methyl-3-(2,2,2-trifluoroethyl)-3,4-dihydroisoquinolin-1-yl]quinoline], in the test with rice blast [1] (setting [3]), the disease severity was 0.
